Assay results: patent US20240299400A1, “Transcription Factor GLI1 Inhibitors and Uses Thereof” (University of Connecticut, priority 2023, published 2024)

Assays:
[1] = tested on: GLI1 mRNA expression; assay: RT-qPCR GLI1 mRNA expression in Sufu-KO MEFs; assay type: cell-based, mouse
Procedure: (§1) ASZ001 and Sufu-KO cells were seeded in 96-well plates (10,000/well, 100 μL) and incubated overnight under growth conditions. On the second day, ‘growth’ media was removed and replaced by ‘assay’ media (100 μL). On the third day, cells were treated with a serial dilution of drugs or DMSO for 48 h. mRNA expression was determined through Taqman Fast Cells-to-CT Kit (#4399003) per the manufacturer's instructions. In brief, cells were washed with chilled PBS, then mixed with lysis solution containing DNase I and incubated at RT for 5 min. Stop solution was then added to quench the lysis reagents. cDNA was then synthesized through a BioRad MyCycler following addition of reverse transcriptase. Finally, the cDNA was amplified through an ABI 7500 system following addition of Taqman Fast Universal PCR Master Mix and Taqman Gene Expression Primer. Relative gene expression levels were computed by the ΔΔCt method. Values represent mRNA expression relative to DMSO control (set at 1.0). Data were analyzed using GraphPad Prism, and IC50 values are the mean±SEM for at least two separate experiments performed in triplicate. Primers used are as follows: mouse ActB (Mm00607939_s1); mouse GLI1 (Mm00494645_ml); mouse Gli2 (Mm01293117_ml); mouse Ptch1 (Mm00436026_ml); mouse Hhip (Mm00469580_ml).

[2] = tested on: GLI1 mRNA expression; assay: RT-qPCR GLI1 mRNA expression in OHCs-stimulated C3H10T1/2 MEFs; assay type: cell-based, mouse; conditions: for % Gli1 Expression: C3H10T1/2 MEFs, 10 μM, relative to Hh-agonist OHCs (set as 100%)
Procedure: as §1
C3H10T1/2 MEFs were seeded in 24-well plates (50,000/well, 500 μL). Following 24 h incubation, the ‘growth’ media was removed and replaced with ‘assay’ media (500 μL). On the third day, cells were treated with either DMSO, OHCs, or OHCs+drugs. Following a 24 h incubation, gene expression analysis was carried out following identical protocols as described above.

[3] = tested on: GLI1 mRNA expression; assay: RT-qPCR GLI1 mRNA expression in ASZ001 BCC cells; assay type: cell-based, mouse; conditions: for reduction of GLI1 expression in ASZ001 (in words): concentrations up to 10 μM
Procedure: as §1

[4] = tested on: ASZ001 cells; assay: MTS anti-proliferative assay in ASZ001 cells; assay type: cell-based, murine; conditions: Mus musculus, ASZ001; Table 5, 48 h, Ave ± SEM
Procedure: Cell viability was assessed by MTS proliferation assay kit (Promega) per manufacturer's protocol. Briefly, 2×10^4 cells were plated in a 96-well plate in 100 μL growth medium to make the cell population at ˜80% confluence. After 24 h, 1 μL drug solution was added to each well. DMSO was used as vehicle compound. After 48 h incubation (37° C., 5% CO2), 20 μL of freshly prepared 3-(4,5-dimethylthiazol-2-yl)-5-(3-carboxymethoxyphenyl)-2-(4-sulfophenyl)-2H-tetrazolium (MTS)/phenazine methosulfate (PMS) solution was added to each well, and the plate was returned to the incubator for 1 h. Absorbance at 490 nm was recorded, and the result was analyzed by GraphPad Prism 5. GI50 values represent mean±SEM for at least two separate experiments performed in triplicate.

[5] = Table 2, mean ± SEM, read-out: GLI1 mRNA expression, IC50 Sufu-KO
[6] = Table 2, mean ± SEM, read-out: GLI1 mRNA expression, IC50 C3H10T1/2
[7] = Table 2, mean ± SEM, read-out: GLI1 mRNA expression, IC50 ASZ001
[8] = Table 4, racemates and enantiomers, mean ± SEM, read-out: RT-qPCR, IC50 Sufu-KO
[9] = Table 4, racemates and enantiomers, mean ± SEM, read-out: RT-qPCR, IC50 C3H10T1/2
[10] = Table 4, racemates and enantiomers, mean ± SEM, read-out: RT-qPCR, IC50 ASZ001
[11] = Mus musculus, Table 5, GLI1 mRNA, Ave ± SEM, read-out: RT-qPCR, IC50 Sufu-KO
[12] = Mus musculus, ASZ001, Table 5, GLI1 mRNA, Ave ± SEM, read-out: RT-qPCR, IC50 ASZ001

Structure (SMILES) | IC50 [1, 5] | % Gli1 Expression ([2]; mean ± SEM) | IC50 [2, 6] | IC50 [3, 7] | IC50 [1, 11] | GI50 [4] | IC50 [3, 12] | further results
COc1cccc(C(Nc2cc(C)ccn2)c2ccc3cccnc3c2O)c1C (racemic) [Compound 2] | 990 ± 320 nM | 7.0 ± 1.4% | 760 ± 230 nM | 5800 ± 1100 nM |  |  |  | 
Cc1ccnc(NC(c2cc(C)ccc2C)c2ccc3cccnc3c2O)c1 (racemic) [Compound 3] | 310 ± 210 nM | 10.0 ± 2.4% | 1200 ± 400 nM | 2200 ± 900 nM |  |  |  | IC50 [1, 8]: 310 ± 210 nM; IC50 [2, 9]: 1200 ± 400 nM; IC50 [3, 10]: 2200 ± 900 nM
COc1ccc(C(Nc2cc(C)ccn2)c2ccc3cccnc3c2O)cc1O (racemic) [Compound 5] | 630 ± 200 nM | 6.1 ± 0.6% | 1800 ± 500 nM | 7100 ± 1200 nM |  |  |  | 
CCOc1cc(C(Nc2cc(C)ccn2)c2ccc3cccnc3c2O)ccc1OC (racemic) [Compound 6] | 780 ± 160 nM | 7.6 ± 0.9% | 3100 ± 1200 nM | > 10000 nM |  |  |  | reduction of GLI1 expression in ASZ001 (in words) [3]: did not reduce GLI1 expression
Oc1c(C(Nc2ccccn2)c2ccc(Cl)c(Cl)c2)ccc2cccnc12 (racemic) [Compound 7] | 480 ± 220 nM | 4.2 ± 0.9% | 570 ± 140 nM | 2800 ± 1500 nM |  |  |  | IC50 [1, 8]: 480 ± 220 nM; IC50 [2, 9]: 570 ± 140 nM; IC50 [3, 10]: 2800 ± 1500 nM
CSc1ccc(C(Nc2cc(C)ccn2)c2ccc3cccnc3c2O)cc1 (racemic) [Compound 8] | 1300 ± 200 nM | 4.1 ± 1.1% | 980 ± 470 nM | 4500 ± 2600 nM |  |  |  | 
Cc1ccccc1C(Nc1ccccn1)c1ccc2cccnc2c1O (racemic) [Compound 9] | 1900 ± 600 nM | 10.6 ± 1.9% | 620 ± 190 nM | > 10000 nM |  |  |  | reduction of GLI1 expression in ASZ001 (in words) [3]: did not reduce GLI1 expression
Cc1ccnc(NC(c2cccc(Cl)c2Cl)c2ccc3cccnc3c2O)c1 (racemic) [Compound 10] | 1500 ± 400 nM | 18.2 ± 1.5% | 210 ± 100 nM | 8400 ± 2000 nM |  |  |  | IC50 [1, 8]: 1500 ± 400 nM; IC50 [2, 9]: 210 ± 100 nM; IC50 [3, 10]: 8400 ± 2000 nM
Cc1ccc2ccc(C(Nc3ccccn3)c3ccc(Cl)c(Cl)c3)c(O)c2n1 (racemic) [Compound 11] | 3700 ± 1000 nM | 16.6 ± 0.7% | 390 ± 270 nM | > 10000 nM |  |  |  | reduction of GLI1 expression in ASZ001 (in words) [3]: did not reduce GLI1 expression
Oc1c(C(Nc2ccccn2)c2c(F)cccc2Cl)ccc2cccnc12 (racemic) [Compound 12] | 1000 ± 200 nM | 6.5 ± 0.8% | 730 ± 70 nM | 3600 ± 1500 nM |  |  |  | IC50 [1, 8]: 1000 ± 200 nM; IC50 [2, 9]: 730 ± 70 nM; IC50 [3, 10]: 3600 ± 1500 nM
COc1ccc(C(Nc2ccccn2)c2ccc3cccnc3c2O)cc1[N+](=O)[O-] (racemic) [Compound 13] | 1700 ± 100 nM | 5.9 ± 0.3% | 1000 ± 300 nM | 3600 ± 1100 nM |  |  |  | 
CCOc1cccc(C(Nc2cc(C)ccn2)c2ccc3cccnc3c2O)c1OC (racemic) [s2] |  | 63.7 ± 7.2% |  |  |  |  |  | 
CCOc1cccc(C(Nc2cc(C)ccn2)c2ccc3cccnc3c2O)c1C (racemic) [s3] |  | 59.1 ± 11.9% |  |  |  |  |  | 
CCOc1cccc(C(Nc2ccccn2)c2ccc3ccc(C)nc3c2O)c1 (racemic) [s6] |  | 56.1 ± 2.1% |  |  |  |  |  | 
CCOc1ccc(C(Nc2ccccn2)c2ccc3ccc(C)nc3c2O)cc1OC (racemic) [s7] |  | >100% |  |  |  |  |  | 
CCc1ccc(C(Nc2cc(C)ccn2)c2ccc3cccnc3c2O)cc1 (racemic) [s10] |  | 79.4 ± 8.1% |  |  |  |  |  | 
COc1ccc(C(Nc2ccccn2)c2ccc3ccc(C)nc3c2O)cc1C (racemic) [s11] |  | 62.1 ± 6.4% |  |  |  |  |  | 

Structure (SMILES) | IC50 [1, 5] | % Gli1 Expression ([2]; mean ± SEM) | IC50 [2, 6] | IC50 [3, 7] | IC50 [1, 11] | GI50 [4] | IC50 [3, 12] | further results
Cc1ccc2ccc(C(Nc3ccccn3)c3ccccc3Cl)c(O)c2n1 (racemic) [s12] |  | 23.6 ± 2.8% |  |  |  |  |  | 
Cc1ccc2ccc(C(Nc3ccccn3)c3ccccc3F)c(O)c2n1 (racemic) [s14] |  | 78.9 ± 17.6% |  |  |  |  |  | 
CCOc1ccc(C(Nc2ccccn2)c2ccc3ccc(C)nc3c2O)cc1 (racemic) [s16] |  | 86.8 ± 5.7% |  |  |  |  |  | 
COc1ccc(C(Nc2ccccn2)c2ccc3ccc(C)nc3c2O)cc1 (racemic) [s18] |  | >100% |  |  |  |  |  | 
COc1ccc(I)cc1C(Nc1cc(C)ccn1)c1ccc2cccnc2c1O (racemic) [s19] |  | >100% |  |  |  |  |  | 
CCN(CC)c1ccc(C(Nc2ccccn2)c2cc(C)c3ccc(C)nc3c2O)cc1 (centres unmarked) [Compound 16, 7-((4-Diethylaminophenyl)(pyridin-2-ylamino)methyl)-2,5-dimethylquinolin-8-ol] |  |  |  |  | 980 ± 210 nM | 15700 ± 2800 nM | 1600 ± 700 nM | 
CCN(CC)c1ccc(C(Nc2ccccn2)c2ccc3ccccc3c2O)cc1 (centres unmarked) [Compound 17, 2-((4-Diethylaminophenyl)(pyridin-2-ylamino)methyl)naphthalen-1-ol] |  |  |  |  | > 25000 nM | > 100000 nM | 9900 ± 1400 nM | 
CCN(CC)c1ccc(C(Nc2ccccn2)c2c(O)ccc3cccnc23)cc1 (centres unmarked) [Compound 19, 8-((4-Diethylaminophenyl)(pyridin-2-ylamino)methyl)quinolin-7-ol] |  |  |  |  | > 25000 nM | > 100000 nM | 14600 ± 1400 nM | 
CCN(CC)c1ccc(C(Nc2ccccn2)c2ccc3ccc(C)nc3c2OC(C)C)cc1 (centres unmarked) [Compound 21, N-((4-Diethylaminophenyl)(8-isopropoxy-2-methylquinolin-7-yl)methyl)pyridin-2-amine] |  |  |  |  | > 25000 nM | > 100000 nM | 840 ± 60 nM | 
C#CCCOc1c(C(Nc2ccccn2)c2ccc(N(CC)CC)cc2)ccc2ccc(C)nc12 (centres unmarked) [Compound 23, N-((4-Diethylaminophenyl)(8-(but-3-yn-1-yloxy)-2-methylquinolin-7-yl)methyl)pyridin-2-amine] |  |  |  |  | > 25000 nM | > 100000 nM | 1900 ± 500 nM | 
CCN(CC)c1ccc(C(Nc2ccccn2)c2ccc3ccc(C)nc3c2OCc2ccccc2)cc1 (centres unmarked) [Compound 24, N-((4-Diethylaminophenyl)(8-benzyloxy-2-methylquinolin-7-yl)methyl)pyridin-2-amine] |  |  |  |  | > 25000 nM | > 100000 nM | 1700 ± 300 nM | 
CCN(CC)c1ccc(C(Nc2ccccn2)c2ccc3ccc(C)nc3c2OCc2cccc(OC)c2)cc1 (centres unmarked) [Compound 25, N-((4-Diethylaminophenyl)(8-(3-methoxybenzyloxy)-2-methylquinolin-7-yl)methyl)pyridin-2-amine] |  |  |  |  | > 25000 nM | > 100000 nM | 1300 ± 400 nM | 
CCN(CC)c1ccc(C(Nc2ccccn2)c2ccc3ccc(C)nc3c2OCc2ccc(OC)cc2)cc1 (centres unmarked) [Compound 26, N-((4-Diethylaminophenyl)(8-(4-methoxybenzyloxy)-2-methylquinolin-7-yl)methyl)pyridin-2-amine] |  |  |  |  | > 25000 nM | > 100000 nM | 1200 ± 500 nM | 
CCN(CC)c1ccc(C2c3ccc4ccc(C)nc4c3OC(=O)N2c2ccccn2)cc1 (centres unmarked) [Compound 27, 4-(4-Diethylaminophenyl)-9-methyl-3-(pyridin-2-yl)-3,4-dihydro-2H-[1,3]oxazino[5,6-h]quinolin-2-one] |  |  |  |  | > 25000 nM | > 100000 nM | 6900 ± 1100 nM | 
CCN(CC)c1ccc(C(C)(Nc2ccccn2)c2ccc3ccc(C)nc3c2O)cc1 (centres unmarked) [Compound 28, 7-(1-(4-(Diethylamino)phenyl)-1-(pyridin-2-ylamino)ethyl)-2-methylquinolin-8-ol] |  |  |  |  | 2100 ± 600 nM | 25100 ± 4200 nM | 7200 ± 1100 nM | 
Cc1ccc(NC(c2cccc(C)n2)c2ccc3cccnc3c2O)nc1 (centres unmarked) [s25] |  | >100% |  |  |  |  |  | 
